# Paper PMC5859730, “Dual targeting of the cancer antioxidant network with 1,4-naphthoquinone fused Gold(I) N-heterocyclic carbene complexes” (Chemical Science, 2017)
# Columns and labels:
# [1] = tested on: zebrafish embryos; assay: Zebrafish toxicity analysis (lethality, MTD); assay type: in vivo
# [2] = tested on: A549 cells; assay: Apoptosis by annexin-V/PI flow cytometry; assay type: cell-based, human; conditions: A549, 1.25–20 μM, 24 h
# [3] = tested on: PC-3 prostate; assay: Cell proliferation (MTT assay) in PC-3 prostate cells; assay type: cell-based, human; conditions: p53 null; Table 3
# Procedure: Further anti-proliferation studies were carried out with complex 1 and its naphthoquinone component 4[H][Cl] using the following cell lines: A2780 ovarian (a wt-p53 cell line sensitive to platinum treatment), 2780CP ovarian (isogenic to A2780 but expressing multi-drug resistance (MDR)), and PC-3 prostate (p53 null) (Table 3).
# Biological preparations and assays
# Experimental compound preparation. Stock solutions of complexes 1–3, 4[H][Cl], auranofin (Tocris Bioscience 4600), and doxorubicin (Tocris Bioscience 2252) were dissolved in DMSO (2.5–10 mM, depending on the compound and its solubility), aliquoted, and stored at -80 °C prior to use.
# Biological Materials and Cell Lines. Cell lines were obtained from the ATCC (A549 and PC-3) and Prof.
# Zahid Siddik at M.D. Anderson Cancer Center (A2780 and A2780CP). Cell culture plastic ware (i.e. T-75 flasks, treated 6-well plates, treated 96-well plates, and cell scrapers) were obtained from Fisher Scientific. […]
# were made. […] The medium was then removed, the resulting formazan was dissolved in […] DMSO and the respective absorbances were measured at 560–650 nm using a microplate reader (Molecular Devices, Sunnyvale, CA). Absorbance values were corrected for background and then normalized to wells containing untreated cells to allow for plate-to-plate comparisons. […]
# [4] = tested on: A549 xenografts in zebrafish embryos; assay: Zebrafish A549 tumor xenograft efficacy; assay type: in vivo; conditions: 0.5 μM, 48 to 72 hpf
# Procedure: The anticancer activity of the complex 1 was tested using a qualitative high throughput zebrafish tumor xenograft model (IACUC # I13009).[74] First, zebrafish embryos were divided into 7 groups at an average of 65 embryos per group. Each group was treated with vehicle (DMSO) or complex 1 at variable concentrations to identify the maximum tolerable dose (MTD) (Fig. S29 ^†). […] Therefore, efficacy studies, using zebrafish bearing human tumor xenografts were carried out with complex 1 being administered at the 0.5 μM concentration level.[75]–[77] Briefly, live human lung cancer cells (A549) were labeled with CM-DiI (red) and only live cells were transplanted via injection into the perivitelline space of 30 zebrafish embryos 24 hours post fertilization (hpf).[74],[78],[79] Tumor inoculated zebrafish embryos were allowed to grow for one day till 48 hpf. This allows for establishment of the cancer cells in the host zebrafish embryos. At 48 hpf, the xenograft bearing zebrafish embryos were split into 2 groups (15 embryos per group) and treated with vehicle (DMSO) or complex 1 at 0.5 μM for one additional day (72 hpf), and cancer cell death was observed using acridine orange staining (green). Live zebrafish-A549 tumor xenografts treated with DMSO display features consistent with the presence of tumor cells (red, white arrows in Fig. 10A). […]
smiles,measurement,setting,value
"Cc1cc(C)c(-n2c3c(n(-c4c(C)cc(C)cc4C)[c]2=[Au-]=[c]2n(-c4c(C)cc(C)cc4C)c4c(n2-c2c(C)cc(C)cc2C)C(=O)c2ccccc2C4=O)C(=O)c2ccccc2C3=O)c(C)c1.[Cl][Ag-][Cl] [Complex 1, [bis(1,3-dimesityl-4,5-naphthoquino-imidazol-2-ylidene)-gold(I)] [silver(I)dichloride]]",Lethality,"[1]; zebrafish embryos, concentrations above 1 μM",100%
same,LC50 (50% lethal concentration),[1]; zebrafish embryos/larvae,750 nM
same,Mortality,"[1]; zebrafish larvae, 0.75 μM dose",~ 50%
same,Mechanism of cell death,[2],induces controlled cell death via an apoptotic mechanism
same,IC50,[3],96 ± 17 nM
same,Tumor cell death in xenografts (acridine orange staining),[4],evidence of apoptosis for the majority of tumor cells
